# Data taken from publication PMC11546786, “Designing Analogs of SAAP-148 with Enhanced Antimicrobial and Anti-LPS Activities” (International Journal of Molecular Sciences, 2024).
# Ends that are not written are not given here.
# How the values were obtained:
# E. coli = experiment: Membrane damage, PI staining and flow cytometry; format: cell-based, Escherichia coli; settings: 6.25 μM peptide, 30 min
# Description: Propidium iodide (PI) was utilized as a marker for assessing the structural integrity of cell membranes and the occurrence of cell death. The impact of peptides on BEAS-2B cells, E. coli, and S. aureus was investigated by treating the cells with peptides followed by PI staining and flow cytometry (FACS) analysis to evaluate peptide-induced membrane damage. Table 5 presents the results of PI staining in BEAS-2B cells (1 × 10^6) following treatment with peptides at a concentration of 6.25 μM. […] FACS analysis at a peptide concentration of 6.25 μM was employed to determine the membrane damage caused by peptides in E. coli and S. aureus cells (Table 5).
# Peptide-induced membrane damage was evaluated by quantifying the influx of propidium iodide (PI). BEAS-2B cells (1 × 10^6 cells in 50 μL) were exposed to a final concentration of 6.25 μM peptide and incubated at 37 °C for 30 min, followed by PBS washing and re-suspension in PI solution (dissolved in PBS) at a final concentration of 2 μg/mL. Bacteria were cultured to mid-log phase at 37 °C, then diluted to an OD600 of 0.5 in phosphate-buffered saline (PBS). […] The bacteria were harvested and re-suspended in PI solution, with fluorescence signal analysis conducted using flow cytometry (Cytomics FC 500, Beckman Coulter, Indianapolis, IN, USA).
# human erythrocytes = experiment: Haemolytic activity; format: cell-based
# Description: The haemolytic activity of the peptides was evaluated using a standard procedure with minor adjustments. Fresh human erythrocytes were washed thrice and subsequently resuspended at 1.25% haematocrit in PBS. Forty microlitres PBS-diluted peptide solution was added to a 96-well plate (Corning Inc., Lowell, MA, USA), and 160 μL of erythrocytes was added. After incubation at 37 °C for 30 min, the samples were centrifuged, and the absorbance of the supernatant was measured at 450 nm using a multi-well microplate reader (SpectraMax M5; Molecular Devices, Sunnyvale, CA, USA) and compared with the 100% haemolysis caused by 0.1% Triton X-100. The percentage of haemolysis was calculated according to the equation: Haemolysis%=Asample−Ablank/Atriton−Ablank×100
# [1] = tested on: human erythrocytes versus five bacterial strains; experiment: Therapeutic index (MHC/GM of MIC)
# Description: The geometric mean of minimum inhibitory concentration (MIC) values (GM) from the five strains was calculated to provide a comprehensive assessment of antimicrobial activity, as presented in Table 4.
# The therapeutic index (TI) is a widely utilized parameter for indicating the specificity of antimicrobial agents, which is determined by the ratio of MHC (hemolytic activity) and MIC (antimicrobial activity). Consequently, larger TI values signify greater antimicrobial specificity. The TI can be enhanced through one of three mechanisms: increasing antimicrobial activity, reducing hemolytic activity while maintaining antimicrobial activity, or a combination of both augmenting antimicrobial activity and diminishing hemolytic activity.
# [2] = tested on: Staphylococcus epidermidis (1.4260); format: cell-based
# Excerpt: (§1) The LL-37, SAAP-148 and its analogues peptides were synthesized according to the standard Fmoc procedure. The Fmoc-protected resin and monomers are first treated with a basic solvent (piperidine) to remove the amino protecting groups. The carboxyl group of the next amino acid is activated by an activator. The activated monomer reacts with the free amino group to form a peptide bond. These two steps are repeated in a cycle until the synthesis is complete. After synthesis, the peptide is eluted from the column and purified by reverse-phase semipreparative high-performance liquid chromatography as detailed in Table 1. The peptides were dissolved in PBS to create a 1000 μmol/L stock solution for subsequent use. The purity of the synthetic peptide exceeded 95%. Blood samples from healthy donors were obtained from the Fifth Medical Center of Chinese PLA General Hospital (Beijing, China). Human normal lung epithelial cells (BEAS-2B) and mouse mononuclear macrophages cells (RAW 264.7) were sourced from Beyotime Biotechnology (Beijing, China), along with the Enhanced Cell Counting Kit-8 (CCK-8) and nitric oxide detection kit. RPMI-1640 and DMEM were procured from Merck (Darmstadt, Germany), while FBS was obtained from ExCell Bio (Shanghai, China). LPS-B5 (from E. coli 055:B5) was procured from Invivogen (Toulouse, France). Five bacterial strains, including Escherichia coli (1.8732), Pseudomonas aeruginosa (1.2421), Klebsiella pneumonia (1.1736) as Gram-negative bacteria, and Staphylococcus aureus (1.8721) and Staphylococcus epidermidis (1.4260) as Gram-positive bacteria, were procured from the China General Microbiological Culture Collection Centre (CGMCC) (Beijing, China).
# (§2) The antibacterial activities of the peptides against […] were evaluated using a modified version of the Clinical Laboratory and Standards Institute (CLSI) broth microdilution method, as previously described. Briefly, the bacteria were cultured in liquid LB medium (comprising 10 g/L tryptone, 5 g/L yeast extract, and 10 g/L NaCl) at 37 °C until reaching mid-log phase. Subsequently, the bacterial concentration was adjusted to 1 × 10^6 colony-forming units (CFU)/mL. The peptides were then diluted serially with phosphate-buffered saline (PBS), followed by the addition of 50 μL of the diluted peptides to 50 μL of the bacterial suspension in a 96-well plate (Corning Inc., Lowell, MA, USA). After incubating at 37 °C for 18 to 20 h, the absorbance of each well was measured using a multi-well microplate reader (SpectraMax M5; Molecular Devices, Sunnyvale, CA, USA) at 600 nm.
# [3] = tested on: Staphylococcus aureus (1.8721); format: cell-based
# Excerpt: as §1, §2
# [4] = tested on: Pseudomonas aeruginosa (1.2421); format: cell-based
# Excerpt: as §1, §2
# [5] = tested on: Gram-negative bacteria (E. coli, P. aeruginosa, K. pneumoniae); experiment: Geometric mean of MICs against Gram-negative bacteria; format: cell-based; set-up: unit not given here
# Outline: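 Modified CLSI broth microdilution: mid-log bacteria from LB culture were adjusted to 1 × 10^6 CFU/mL and mixed 1:1 with peptide serially diluted in PBS. After 18 to 20 h at 37 °C, growth was read as absorbance at 600 nm.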
substance,measurement,setting,value
LKRVWKRVFKLKKRYWRQLKKPVR-NH2 [SAAP-7],"percentage of PI-positive cells, E. coli",E. coli,34.9%
same,fold increase of MHC over that of SAAP-148,human erythrocytes,133.33 fold
same,Fold (TI of analogue compared with SAAP-148),[1]; TI change relative to SAAP-148,55.09
same,TI (MHC/MIC),[1]; ratio of MHC to geometric mean of MIC (five strains),6.06
same,MIC S. epidermidis,[2],12.50 µM
same,MIC S. aureus,[3],100.00 µM
same,MIC P. aeruginosa,[4],3.13 µM
same,GM to G−,[5],9.93
